Experimental data: patent US10294202B2, “Pyrrolidinones as herbicides” (FMC Corporation, priority 2013, dated 2019)

Legend:
[1] = test system: sedge, umbrella; assay: Test B flooded paddy test; assay type: in vivo, Cyperus difformis; details: Flood, scale of 0 to 100 where 0 is no effect and 100 is complete control
In short: (§1)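 Treatment was made at the 2-leaf stage by dosing the standing floodwater, kept 3 cm above soil level for the whole test. Greenhouse exposure lasted 13 to 15 days. Response is a visual percent rating relative to controls, where a dash indicates no test result.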

[2] = test system: rice; assay: Test B flooded paddy test; assay type: in vivo, Oryza sativa; details: Flood, scale of 0 to 100 where 0 is no effect and 100 is complete control
In short: as §1

[3] = test system: velvetleaf; assay: Test C pre-/postemergence herbicide test; assay type: in vivo, Abutilon theophrasti
In short: (§2)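 Greenhouse plants scored visually against untreated controls 13–15 days after treatment, 0 = no effect, 100 = complete control. Test chemicals in a non-phytotoxic solvent with surfactant were applied either to soil (loam/sand) at planting or to foliage of 1- to 4-leaf plants, 2–18 cm tall.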

[4] = test system: waterhemp; assay: Test C pre-/postemergence herbicide test; assay type: in vivo, Amaranthus rudis
In short: as §2

[5] = test system: corn; assay: Test A pre-/postemergence herbicide test; assay type: in vivo, Zea mays
In short: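 Visual 0–100 ratings (100 = complete control) made about 10 days after treatment, greenhouse-held plants compared with untreated controls. Treatments: postemergence sprays on one- to two-leaf plants (2–10 cm tall) and preemergence directed soil sprays after planting in loam–sand, chemicals formulated in non-phytotoxic solvent containing surfactant.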

[6] = test system: ryegrass, Italian; assay: Test C pre-/postemergence herbicide test; assay type: in vivo, Lolium multiflorum
In short: as §2

[7] = test system: ducksalad; assay: Test B flooded paddy test; assay type: in vivo, Heteranthera limosa; details: Flood, scale of 0 to 100 where 0 is no effect and 100 is complete control
In short: as §1

[8] = test system: soybean; assay: Test C pre-/postemergence herbicide test; assay type: in vivo, Glycine max
In short: as §2

[9] = test system: barnyardgrass; assay: Test B flooded paddy test; assay type: in vivo, Echinochloa crus-galli; details: Flood, scale of 0 to 100 where 0 is no effect and 100 is complete control
In short: as §1

[10] = test system: oilseed rape; assay: Test C pre-/postemergence herbicide test; assay type: in vivo, Brassica napus
In short: as §2

[11] = test system: blackgrass; assay: Test C pre-/postemergence herbicide test; assay type: in vivo, Alopecurus myosuroides
In short: as §2

[12] = test system: crabgrass, large; assay: Test C pre-/postemergence herbicide test; assay type: in vivo, Digitaria sanguinalis
In short: as §2

[13] = Postemergence, 31 g ai/ha, scale 0 to 100 (0 no effect, 100 complete control)
[14] = Postemergence, 62 g ai/ha, scale 0 (no effect) to 100 (complete control)
[15] = Postemergence, 125 g ai/ha, scale 0 to 100 (0 no effect, 100 complete control)
[16] = Postemergence, 250 g ai/ha, scale 0 to 100 (0 no effect, 100 complete control)
[17] = Preemergence, 62 g ai/ha, scale 0 to 100 (0 no effect, 100 complete control)
[18] = Preemergence, 125 g ai/ha, scale 0 to 100
[19] = Postemergence, 125 g ai/ha, visual rating on 0 to 100 scale (0 no effect, 100 complete control), approx. 10 days
[20] = Postemergence, 500 g ai/ha, 0 to 100 scale (0 no effect, 100 complete control)
[21] = Preemergence, 31 g ai/ha, scale 0 to 100, 0 is no effect and 100 is complete control
[22] = Postemergence, 31 g ai/ha, scale 0 (no effect) to 100 (complete control)
[23] = Postemergence, 62 g ai/ha, scale 0 to 100 (0 no effect, 100 complete control)
[24] = Preemergence, 62 g ai/ha, scale 0 to 100
[25] = Preemergence, 125 g ai/ha, scale 0 to 100 (0 no effect, 100 complete control)

O=C1NCC(c2cccc(Br)c2)C1C(=O)Nc1cccc(F)c1F (stereo not drawn) [Compound 309]
45: Plant response rating (scale of 0 to 100), Blackgrass ([11]; Preemergence, 250 g ai/ha)
35: Plant response rating, Oilseed Rape [10, 13]
70: Plant response rating (scale of 0 to 100), Oilseed Rape ([10]; Preemergence, 250 g ai/ha)
90: Crabgrass, Large plant response rating [12, 21] | Crabgrass, Large plant response rating [12, 17]
65: Plant response rating, Barnyardgrass ([9]; 500 g ai/ha) | Plant response rating, Crabgrass, Large [12, 16]
80: Plant response rating, Corn [5, 20]
98: Plant response rating (scale of 0 to 100), Crabgrass, Large ([12]; Preemergence, 250 g ai/ha)
40: Plant response rating (scale of 0 to 100), Waterhemp ([4]; Preemergence, 250 g ai/ha) | Plant response rating, Oilseed Rape [10, 15]
60: Plant response rating, Crabgrass, Large [12, 15]
95: Plant response rating, Crabgrass, Large [12, 18]
100: Plant response rating, Ducksalad ([7]; 500 g ai/ha)
50: Plant response rating, Oilseed Rape [10, 18] | Plant response rating, Blackgrass [11, 18]
10: Plant response rating, Waterhemp [4, 15] | Plant response rating, Waterhemp [4, 16] | Plant response rating (scale of 0 to 100), Ryegrass, Italian ([6]; Preemergence, 250 g ai/ha)
30: Plant response rating, Waterhemp [4, 18] | Plant response rating, Corn [5, 19] | Plant response rating, Oilseed Rape [10, 14] | Plant response rating, Crabgrass, Large [12, 14]
0: Plant response rating, Sedge, Umbrella ([1]; 500 g ai/ha) | Plant response rating, Rice ([2]; 500 g ai/ha) | Velvetleaf plant response rating [3, 17] | Plant response rating, Velvetleaf [3, 18] | Plant response rating, Waterhemp [4, 13] | Waterhemp plant response rating [4, 17] | Plant response rating, Ryegrass, Italian [6, 13] | Plant response rating, Ryegrass, Italian [6, 14] | Plant response rating, Ryegrass, Italian [6, 15] | Ryegrass, Italian plant response rating [6, 17] | Plant response rating, Ryegrass, Italian [6, 18] | Plant response rating, Soybean [8, 13] | Plant response rating, Soybean [8, 14] | Plant response rating, Soybean [8, 16] | Soybean plant response rating [8, 17] | Plant response rating, Soybean [8, 18] | Plant response rating (scale of 0 to 100), Soybean ([8]; Preemergence, 250 g ai/ha) | Oilseed Rape plant response rating [10, 21] | Oilseed Rape plant response rating [10, 17] | Plant response rating, Blackgrass [11, 13] | Plant response rating, Blackgrass [11, 14] | Blackgrass plant response rating [11, 21] | Blackgrass plant response rating [11, 17] | Plant response rating, Crabgrass, Large [12, 13]
15: Plant response rating, Velvetleaf [3, 16] | Plant response rating (scale of 0 to 100), Velvetleaf ([3]; Preemergence, 250 g ai/ha) | Plant response rating, Soybean [8, 15]
5: Plant response rating, Velvetleaf [3, 13] | Plant response rating, Velvetleaf [3, 14] | Plant response rating, Velvetleaf [3, 15] | Plant response rating, Waterhemp [4, 14] | Plant response rating, Ryegrass, Italian [6, 16] | Plant response rating, Oilseed Rape [10, 16] | Plant response rating, Blackgrass [11, 15] | Plant response rating, Blackgrass [11, 16]

O=C1NCC(c2ccc(F)c(C(F)(F)F)c2)C1C(=O)Nc1ccccc1F (racemic) [Compound 76]
35: Plant response rating (scale of 0 to 100), Velvetleaf ([3]; Preemergence, 250 g ai/ha)
90: Plant response rating, Ducksalad ([7]; 250 g ai/ha)
50: Waterhemp plant response rating [4, 21] | Plant response rating, Waterhemp [4, 24] | Plant response rating, Waterhemp [4, 25] | Blackgrass plant response rating [11, 21] | Plant response rating, Blackgrass [11, 24] | Plant response rating, Crabgrass, Large [12, 23]
25: Plant response rating, Velvetleaf [3, 25] | Plant response rating, Ryegrass, Italian [6, 24]
60: Plant response rating (scale of 0 to 100), Waterhemp ([4]; Preemergence, 250 g ai/ha)
10: Plant response rating, Waterhemp [4, 16] | Plant response rating, Soybean [8, 16] | Plant response rating, Oilseed Rape [10, 16] | Plant response rating, Blackgrass [11, 16]
100: Plant response rating, Crabgrass, Large [12, 25] | Plant response rating (scale of 0 to 100), Crabgrass, Large ([12]; Preemergence, 250 g ai/ha)
40: Plant response rating, Corn ([5]; Postemergence, 125 g ai/ha, 0 to 100 scale, 0 no effect, 100 complete control) | Plant response rating, Corn ([5]; preemergence, 500 g ai/ha, 0 to 100 scale) | Plant response rating, Ryegrass, Italian [6, 25] | Plant response rating (scale of 0 to 100), Ryegrass, Italian ([6]; Preemergence, 250 g ai/ha)
98: Crabgrass, Large plant response rating [12, 21] | Plant response rating, Crabgrass, Large [12, 24]
5: Plant response rating, Waterhemp [4, 23] | Plant response rating, Waterhemp [4, 15] | Plant response rating, Ryegrass, Italian [6, 16] | Plant response rating, Soybean [8, 15]
70: Plant response rating, Corn [5, 20] | Plant response rating, Crabgrass, Large [12, 15]
80: Plant response rating, Blackgrass [11, 25] | Plant response rating (scale of 0 to 100), Blackgrass ([11]; Preemergence, 250 g ai/ha)
75: Plant response rating (scale of 0 to 100), Oilseed Rape ([10]; Preemergence, 250 g ai/ha) | Plant response rating, Crabgrass, Large [12, 16]
0: Plant response rating, Sedge, Umbrella ([1]; 250 g ai/ha) | Plant response rating, Rice ([2]; 250 g ai/ha) | Plant response rating, Velvetleaf [3, 22] | Plant response rating, Velvetleaf [3, 23] | Plant response rating, Velvetleaf [3, 15] | Plant response rating, Velvetleaf [3, 16] | Velvetleaf plant response rating [3, 21] | Plant response rating, Velvetleaf [3, 24] | Plant response rating, Waterhemp [4, 22] | Corn plant response rating ([5]; Preemergence, 125 g ai/ha, visual rating on 0 to 100 scale (0 no effect, 100 complete control)) | Plant response rating, Ryegrass, Italian [6, 22] | Plant response rating, Ryegrass, Italian [6, 23] | Plant response rating, Ryegrass, Italian [6, 15] | Ryegrass, Italian plant response rating [6, 21] | Plant response rating, Soybean [8, 22] | Plant response rating, Soybean [8, 23] | Soybean plant response rating [8, 21] | Plant response rating, Soybean [8, 24] | Plant response rating, Soybean [8, 25] | Plant response rating (scale of 0 to 100), Soybean ([8]; Preemergence, 250 g ai/ha) | Plant response rating, Barnyardgrass ([9]; 250 g ai/ha) | Plant response rating, Oilseed Rape [10, 22] | Plant response rating, Oilseed Rape [10, 23] | Plant response rating, Oilseed Rape [10, 15] | Oilseed Rape plant response rating [10, 21] | Plant response rating, Oilseed Rape [10, 24] | Plant response rating, Blackgrass [11, 22] | Plant response rating, Blackgrass [11, 23] | Plant response rating, Blackgrass [11, 15] | Plant response rating, Crabgrass, Large [12, 22]
30: Plant response rating, Oilseed Rape [10, 25]

O=C1NCC(c2cccc(C(F)(F)F)c2)C1C(=O)Nc1ccccc1Cl (stereo not drawn) [Compound 312]
100: Plant response rating, Ducksalad ([7]; 500 g ai/ha)
15: Velvetleaf plant response rating [3, 17] | Plant response rating, Oilseed Rape [10, 18]
10: Plant response rating, Ryegrass, Italian [6, 16]
40: Plant response rating (scale of 0 to 100), Velvetleaf ([3]; Preemergence, 250 g ai/ha) | Blackgrass plant response rating [11, 21]
25: Plant response rating, Crabgrass, Large [12, 13]
65: Plant response rating, Waterhemp [4, 18]
45: Plant response rating, Waterhemp [4, 14] | Waterhemp plant response rating [4, 17] | Blackgrass plant response rating [11, 17]
0: Plant response rating, Sedge, Umbrella ([1]; 500 g ai/ha) | Plant response rating, Velvetleaf [3, 14] | Plant response rating, Velvetleaf [3, 15] | Plant response rating, Waterhemp [4, 13] | Plant response rating, Ryegrass, Italian [6, 13] | Plant response rating, Ryegrass, Italian [6, 14] | Plant response rating, Soybean [8, 13] | Plant response rating, Soybean [8, 14] | Plant response rating, Soybean [8, 15] | Plant response rating, Soybean [8, 16] | Soybean plant response rating [8, 17] | Plant response rating, Soybean [8, 18] | Plant response rating (scale of 0 to 100), Soybean ([8]; Preemergence, 250 g ai/ha) | Plant response rating, Oilseed Rape [10, 13] | Plant response rating, Oilseed Rape [10, 14] | Plant response rating, Oilseed Rape [10, 15] | Plant response rating, Oilseed Rape [10, 16] | Oilseed Rape plant response rating [10, 21] | Oilseed Rape plant response rating [10, 17] | Plant response rating, Blackgrass [11, 13] | Plant response rating, Blackgrass [11, 14] | Plant response rating, Blackgrass [11, 15] | Plant response rating, Blackgrass [11, 16]
20: Plant response rating, Rice ([2]; 500 g ai/ha) | Plant response rating, Velvetleaf [3, 18] | Plant response rating, Waterhemp [4, 15] | Plant response rating, Waterhemp [4, 16]
75: Plant response rating, Barnyardgrass ([9]; 500 g ai/ha) | Plant response rating (scale of 0 to 100), Blackgrass ([11]; Preemergence, 250 g ai/ha)
95: Crabgrass, Large plant response rating [12, 17] | Plant response rating, Crabgrass, Large [12, 18] | Plant response rating (scale of 0 to 100), Crabgrass, Large ([12]; Preemergence, 250 g ai/ha)
80: Plant response rating (scale of 0 to 100), Waterhemp ([4]; Preemergence, 250 g ai/ha) | Plant response rating, Corn [5, 20] | Plant response rating, Crabgrass, Large [12, 15]
50: Plant response rating, Crabgrass, Large [12, 14]
35: Plant response rating, Velvetleaf [3, 16] | Plant response rating, Ryegrass, Italian [6, 15] | Plant response rating, Ryegrass, Italian [6, 18]
90: Plant response rating, Crabgrass, Large [12, 16] | Crabgrass, Large plant response rating [12, 21]
70: Plant response rating, Blackgrass [11, 18]
60: Plant response rating, Corn [5, 19]
30: Plant response rating, Velvetleaf [3, 13] | Ryegrass, Italian plant response rating [6, 17] | Plant response rating (scale of 0 to 100), Ryegrass, Italian ([6]; Preemergence, 250 g ai/ha) | Plant response rating (scale of 0 to 100), Oilseed Rape ([10]; Preemergence, 250 g ai/ha)
